Test results taken from US20160050935A1, “METHOD FOR CONTROLLING PARTICLE SIZE OF SILVER PARTICLES, SILVER PARTICLES, ANTIMICROBIAL AGENT CONTAINING SLIVER PARTICLES, AND USE THEREOF” (SOFSERA CORPORATION, priority 2013, published 2016).

Test system: Escherichia coli (Gram-negative bacteria)
Assay: Antibacterial test of silver particles-2 (bacteria count in tube 1 over time)
Type: cell-based
Experimental: A test similar to that in <5. Antibacterial test of silver particles-1> was carried out with use of Escherichia coli (Gram-negative bacteria), which is one of model organisms and by which bacteria are typified. Note that the test was carried out by a method similar to that in <5. Antibacterial test of silver particles-1>, except that a kind of the bacteria used in the test was changed. Therefore, the method of the test will not be described here, and only results of the test will be described.
FIG. 10 illustrates results of the test carried out with use of “1 mM CDT-Ag,” “5 mM CDT-Ag,” and “10 mM CDT-Ag.” More specifically, FIG. 10 illustrates results of, “0 (zero) h,” “0.5 h,” “1 (one) h,” and “2 h” after the silver particles were mixed with the bacteria, (i) taking out an LB culture medium from each of tubes 1 through 8 stored in an incubator and (ii) carrying out an operation K), that is, a result of incubating the bacteria at 37° C. for 24 hours by storing a petri dish, prepared in the operation K), in the incubator.

**Q.** Which “bacteria count in the tube 1 (count at 0 h = 1)” value (“bacteria count” for short) (0 h (set to 1 by assumption)) does the source give for `O=C(O)CCCCCCCCCCS` [Free CDT, 10-carboxy-1-decanthiol] here?
**A.** 1

**Q.** What about the “bacteria count” value (0.5 h after mixing) of the same molecule?
**A.** 1

**Q.** What about the “bacteria count” value (1 h after mixing) of the same molecule?
**A.** 1

**Q.** And the “bacteria count” value (2 h after mixing)?
**A.** 1

**Q.** What about the antibacterial activity (in words, from FIG. 10 and Table 3) of the same molecule?
**A.** did not have antibacterial activity
